Test results as given in PubChem BioAssay (NCI).
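Protocol summary: plate cells (96-well), add compound at 5 concentrations, incubate 48 h, interpolate endpoints linearly. At the GI50, growth is halved. TGI: concentration producing complete growth inhibition.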

Key:
Experiment in all cases: NCI-60 cell line screen, 48 h; in the data active = GI50 below about 0.43 µM; inactive = the rest
[1] = test system: IGROV1 ovarian
[2] = test system: M14 melanoma
[3] = test system: 786-0 renal
[4] = test system: OVCAR-8 ovarian
[5] = test system: MDA-MB-231 breast
[6] = test system: ACHN renal
[7] = test system: BT-549 breast
[8] = test system: SF-295 CNS
[9] = test system: SK-MEL-2 melanoma
[10] = test system: NCI-H226 lung
[11] = test system: HCC-2998 colon
[12] = test system: NCI/ADR-RES ovarian
[13] = test system: SF-539 CNS
[14] = test system: NCI-H522 lung
[15] = test system: A498 renal
[16] = test system: TK-10 renal
[17] = test system: EKVX NSCLC
[18] = test system: LOX IMVI melanoma
[19] = test system: SNB-75 CNS
[20] = test system: HOP-92 NSCLC
[21] = test system: CCRF-CEM leukemia
[22] = test system: SW-620 colon
[23] = test system: MCF7 breast
[24] = test system: UACC-257 melanoma
[25] = test system: SK-MEL-28 melanoma
[26] = test system: MOLT-4 leukemia
[27] = test system: KM12 colon
[28] = test system: SR leukemia
[29] = test system: NCI-H460 lung
[30] = test system: A549 NSCLC
[31] = test system: UACC-62 melanoma
[32] = test system: RPMI-8226 leukemia
[33] = test system: CAKI-1 renal
[34] = test system: HOP-62 NSCLC
[35] = test system: DU-145 prostate
[36] = test system: OVCAR-5 ovarian
[37] = test system: OVCAR-4 ovarian
[38] = test system: HCT-116 colon
[39] = test system: U251 CNS
[40] = test system: COLO 205 colon
[41] = test system: SNB-19 CNS
[42] = test system: T-47D breast
[43] = test system: SK-MEL-5 melanoma
[44] = test system: HT29 colon
[45] = test system: MALME-3M melanoma
[46] = test system: K-562 leukemia
[47] = test system: NCI-H23 lung
[48] = test system: MDA-MB-435
[49] = test system: SN12C renal
[50] = test system: UO-31 renal
[51] = test system: SK-OV-3 ovarian
[52] = test system: HL-60(TB) leukemia
[53] = test system: SF-268 CNS
[54] = test system: RXF 393 renal
[55] = test system: PC-3 prostate
[56] = test system: HS 578T breast
[57] = test system: OVCAR-3 ovarian
[58] = test system: HCT-15 colon

FC(F)(F)c1cc(Br)cc(-c2cc(-c3ccc4c(c3)OCCO4)[nH]n2)c1
4.4 µM: TGI [49]
0.757 µM: TGI [13]
0.0694 µM: TGI [14]
2.22 µM: TGI [7]
> 56.6 µM: TGI [51]
2.54 µM: TGI [43]
3.78 µM: TGI [3]
> 22.9 µM: TGI [32]
4.86 µM: TGI [39]
> 52.1 µM: TGI [27]
> 38.5 µM: TGI [55]
0.45 µM: TGI [54]
0.773 µM: TGI [48]
0.283 µM: TGI [15] | TGI [40]
0.925 µM: TGI [19]
1.47 µM: TGI [4]
0.533 µM: TGI [44]
inactive: GI50 [16] 12.3 µM | GI50 [17] 0.645 µM | GI50 [20] 1.15 µM | GI50 [24] 2.71 µM | GI50 [25] 2.68 µM | GI50 [42] 0.683 µM | GI50 [45] 1.6 µM | GI50 [53] 0.753 µM
13.9 µM: TGI [29]
active: GI50 [1] 0.153 µM | GI50 [2] 0.0765 µM | GI50 [3] 0.0565 µM | GI50 [4] 0.213 µM | GI50 [5] 0.0785 µM | GI50 [6] 0.0752 µM | GI50 [7] 0.0567 µM | GI50 [8] 0.0318 µM | GI50 [9] 0.162 µM | GI50 [10] 0.214 µM | GI50 [11] 0.29 µM | GI50 [12] 0.0517 µM | GI50 [13] 0.0651 µM | GI50 [14] 0.0236 µM | GI50 [15] 0.0363 µM | GI50 [18] 0.0296 µM | GI50 [19] 0.12 µM | GI50 [21] 0.0875 µM | GI50 [22] 0.054 µM | GI50 [23] 0.059 µM | GI50 [26] 0.196 µM | GI50 [27] 0.0596 µM | GI50 [28] 0.0364 µM | GI50 [29] 0.0605 µM | GI50 [30] 0.146 µM | GI50 [31] 0.039 µM | GI50 [32] 0.306 µM | GI50 [33] 0.0793 µM | GI50 [34] 0.226 µM | GI50 [35] 0.284 µM | GI50 [36] 0.348 µM | GI50 [38] 0.0424 µM | GI50 [39] 0.0785 µM | GI50 [40] 0.109 µM | GI50 [41] 0.108 µM | GI50 [43] 0.0841 µM | GI50 [44] 0.0426 µM | GI50 [46] 0.0373 µM | GI50 [47] 0.376 µM | GI50 [48] 0.0264 µM | GI50 [49] 0.144 µM | GI50 [50] 0.201 µM | GI50 [51] 0.124 µM | GI50 [52] 0.0336 µM | GI50 [54] 0.0478 µM | GI50 [55] 0.0705 µM | GI50 [56] 0.259 µM
> 38.6 µM: TGI [2]
5.51 µM: TGI [20]
> 100 µM: TGI [1] | TGI [5] | TGI [6] | TGI [9] | TGI [10] | TGI [11] | TGI [12] | TGI [17] | TGI [18] | TGI [22] | TGI [23] | TGI [24] | TGI [25] | TGI [26] | TGI [28] | TGI [31] | TGI [33] | TGI [34] | TGI [35] | TGI [36] | TGI [37] | TGI [41] | TGI [42] | TGI [45] | TGI [46] | TGI [47] | TGI [50] | TGI [53] | TGI [56]
1.62 µM: TGI [38]
> 38.1 µM: TGI [30]
63.4 µM: TGI [16]
> 39.5 µM: TGI [21]

CCN(CC)S(=O)(=O)c1ccc(-c2nc(C(Cl)Cl)nc3cc(-c4ccc(F)cc4)nn23)cc1
4.15 µM: TGI [11]
8.99 µM: TGI [50]
> 100 µM: TGI [1] | TGI [3] | TGI [4] | TGI [7] | TGI [9] | TGI [10] | TGI [12] | TGI [14] | TGI [18] | TGI [19] | TGI [21] | TGI [22] | TGI [23] | TGI [24] | TGI [26] | TGI [28] | TGI [58] | TGI [31] | TGI [34] | TGI [36] | TGI [37] | TGI [38] | TGI [41] | TGI [42] | TGI [43] | TGI [45] | TGI [46] | TGI [48] | TGI [49] | TGI [51] | TGI [53]
3.07 µM: TGI [29]
10.8 µM: TGI [25]
20.6 µM: TGI [47]
6.57 µM: TGI [17]
inactive: GI50 [1] 3.38 µM | GI50 [3] 5.37 µM | GI50 [4] 3.94 µM | GI50 [5] 2.01 µM | GI50 [6] 1.16 µM | GI50 [57] 1.15 µM | GI50 [7] 18.5 µM | GI50 [8] 2.29 µM | GI50 [9] > 100 µM | GI50 [10] 3.77 µM | GI50 [11] 1.89 µM | GI50 [12] 2.24 µM | GI50 [13] 2.24 µM | GI50 [14] > 100 µM | GI50 [15] 1.33 µM | GI50 [16] 2.99 µM | GI50 [17] 2.28 µM | GI50 [18] 6.37 µM | GI50 [19] 11.7 µM | GI50 [20] 2 µM | GI50 [21] > 100 µM | GI50 [22] 1.41 µM | GI50 [23] 2.66 µM | GI50 [24] 5.51 µM | GI50 [25] 2.73 µM | GI50 [26] 8.19 µM | GI50 [27] 1.89 µM | GI50 [28] 2.69 µM | GI50 [58] 1.32 µM | GI50 [29] 0.923 µM | GI50 [30] 2.52 µM | GI50 [31] 4.03 µM | GI50 [32] 0.733 µM | GI50 [33] 2.38 µM | GI50 [34] 3.21 µM | GI50 [35] 1.34 µM | GI50 [36] 3.04 µM | GI50 [37] 3.71 µM | GI50 [38] 1.73 µM | GI50 [39] 2.21 µM | GI50 [40] 2.02 µM | GI50 [41] 3.7 µM | GI50 [42] 2.94 µM | GI50 [43] > 100 µM | GI50 [44] 1.55 µM | GI50 [45] > 100 µM | GI50 [46] 1.83 µM | GI50 [47] 2.49 µM | GI50 [48] 3.02 µM | GI50 [49] 15.7 µM | GI50 [50] 2.27 µM | GI50 [51] 4.09 µM | GI50 [52] 1.58 µM | GI50 [53] 5.14 µM | GI50 [54] 1.54 µM | GI50 [55] 2.61 µM | GI50 [56] 3.56 µM
18.6 µM: TGI [55]
93.2 µM: TGI [56]
14.4 µM: TGI [39]
12.8 µM: TGI [8]
8.88 µM: TGI [13]
13.3 µM: TGI [33]
2.98 µM: TGI [35]
3.41 µM: TGI [54]
6.16 µM: TGI [40]
5.47 µM: TGI [20]
4.7 µM: TGI [15]
6.65 µM: TGI [52]
9.43 µM: TGI [27]
8.72 µM: TGI [16]
3.79 µM: TGI [32]
2.87 µM: TGI [57]
10.1 µM: TGI [30]
3.57 µM: TGI [6]
7.27 µM: TGI [5]
4.77 µM: TGI [44]
